The assay deals with T1, EBP (Homo sapiens, UniProt Q15125).
T1 construct: HEK293T cells were utilized as the source of EBP enzyme; endogenous in cells; host or cells: HEK293T
T1 sequence (Q15125 whole entry): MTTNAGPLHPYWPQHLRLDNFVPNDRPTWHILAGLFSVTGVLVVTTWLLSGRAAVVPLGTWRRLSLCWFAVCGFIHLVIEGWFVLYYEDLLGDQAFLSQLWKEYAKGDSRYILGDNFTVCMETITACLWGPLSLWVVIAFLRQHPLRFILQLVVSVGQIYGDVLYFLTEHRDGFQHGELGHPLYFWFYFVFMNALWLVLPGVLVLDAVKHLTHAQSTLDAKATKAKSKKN
Put plainly: EBP Functional Assay (EBP immunoaffinity LC-MS assay). The format is biochemical. To be noted: HEK293T cells as source of EBP enzyme; 30 min with inhibitor, then zymosterol-d5, 37° C. for 4 h; percent conversion by LC-APCI MRM MS. As to the method:
The EBP immunoaffinity (IA) LC-MS assay measures the potency of small molecule inhibitors of EBP by quantifying their concentration-dependent changes in the enzyme's substrate and product using liquid chromatography atmospheric pressure chemical ionization multiple reaction monitoring mass spectrometry (LC-APCI MRM MS). HEK293T cells were utilized as the source of EBP enzyme. The enzyme was incubated with the small molecule inhibitors at variable concentrations for 30 min. Deuterated form of EBP substrate, zymosterol-d5 (Avanti Polar Lipids, Cat #700068P-1 mg), was then added and the plate was incubated at 37° C. for 4 h. Finally, the sterol isomers were extracted and injected to LC-APCI MRM MS. MRM transition used for the quantification for both zymosterol and dihydrolathosterol (substrate and product of EBP enzymatic reaction, respectively) is 372.3-203.2, CE 30 and DP 80 in positive ion mode. Percent conversion of the zymosterol-d5 to dehydrolathosterol-d5 was used to derive IC50 curves. Tasin-1 (1′-[(4-Methoxyphenyl)sulfonyl]-4-methyl-1,4′-bipiperidine, CAS 792927-06-1) was used as the reference small molecule inhibitor. Percent conversion versus the compound concentration data were fit to the following 4-parameter logistic model to generate IC50 curves: […]
The IC50 is the midpoint of a concentration-inhibition curve. A lower IC50 goes with greater potency in that assay. The molecule `CC(O)CCN[C@@H]1C[C@H]2CC[C@@H](C1)N2S(=O)(=O)c1ccc(OC(F)F)cc1` (mixture of isomers) [Example 60, rac-4-(((1R,3s,5S)-8-((4-(difluoromethoxy)phenyl)sulfonyl)-8-azabicyclo[3.2.1]octan-3-yl)amino)butan-2-ol] yielded an IC50 of 150 to 2000 nM.

`CC1CCN([C@@H]2C[C@H]3CC[C@@H](C2)N3S(=O)(=O)c2cc(-c3ccccc3)n[nH]2)CC1` [Example 10, (1R,3s,5S)-3-(4-Methylpiperidin-1-yl)-8-((3-phenyl-1H-pyrazol-5-yl)sulfonyl)-8-azabicyclo[3.2.1]octane] came in with an IC50 of under 50 nM.

Molecule `CC1(CN[C@@H]2C[C@H]3CC[C@@H](C2)N3S(=O)(=O)c2ccc(OC(F)F)cc2)COC1` [Example 28, (1R,3s,5S)-8-((4-(Difluoromethoxy)phenyl)sulfonyl)-N-((3-methyloxetan-3-yl)methyl)-8-azabicyclo[3.2.1]octan-3-amine] registered an IC50 of under 50 nM.

In the case of `O=S(=O)(c1ccc(OC(F)F)cc1)N1[C@@H]2CC[C@H]1C[C@H](NCC1CCOCC1)C2` [Example 29, (1R,3s,5S)-8-((4-(Difluoromethoxy)phenyl)sulfonyl)-N-((tetrahydro-2H-pyran-4-yl)methyl)-8-azabicyclo[3.2.1]octan-3-amine], the IC50 is under 50 nM.

As to `O=S(=O)(c1ccc(OC(F)F)cc1)N1[C@@H]2CC[C@H]1C[C@@H](NCC1COC1)C2` [Example 72, (1R,3r,5S)-8-((4-(Difluoromethoxy)phenyl)sulfonyl)-N-(oxetan-3-ylmethyl)-8-azabicyclo[3.2.1]octan-3-amine], the concentration for half-maximal inhibition (IC50) was under 50 nM.

Molecule `CC1CCN([C@@H]2C[C@H]3CC[C@@H](C2)N3S(=O)(=O)c2ccc3c(c2)COCC3)CC1` [Example 7, (1R,3s,5S)-8-(Isochroman-7-ylsulfonyl)-3-(4-methylpiperidin-1-yl)-8-azabicyclo[3.2.1]octane] had an IC50 of under 50 nM.

Turning to `CN(C1CCOCC1)[C@@H]1C[C@H]2CC[C@@H](C1)N2S(=O)(=O)c1ccc(OC(F)F)cc1` [Example 66, (1R,3s,5S)-8-((4-(difluoromethoxy)phenyl)sulfonyl)-N-methyl-N-(tetrahydro-2H-pyran-4-yl)-8-azabicyclo[3.2.1]octan-3-amine], the IC50 fell in the range of 150 to 2000 nM.

`O=S(=O)(c1c(F)cc(OC(F)F)cc1F)N1[C@@H]2CC[C@H]1C[C@H](CN1CCOCC1)C2` [Example 35, 4-(((1R,3s,5S)-8-((4-(Difluoromethoxy)-2,6-difluorophenyl)sulfonyl)-8-azabicyclo[3.2.1]octan-3-yl)methyl)morpholine] had a concentration for half-maximal inhibition (IC50) of under 50 nM.

For the molecule `CC1CCN([C@@H]2C[C@H]3CC[C@@H](C2)N3S(=O)(=O)c2cn3c(n2)CCCC3C)CC1` (stereo partly drawn) [Example 11, 5-Methyl-2-(((1R,3s,5S)-3-(4-methylpiperidin-1-yl)-8-azabicyclo[3.2.1]octan-8-yl)sulfonyl)-5,6,7,8-tetrahydroimidazo[1,2-a]pyridine], the IC50 is under 50 nM.

Molecule `O=S(=O)(c1ccc(OC(F)F)cc1)N1[C@@H]2CC[C@H]1C[C@H](CN1CCOCC1)C2` [Example 67, 4-(((1R,3s,5S)-8-((4-(Difluoromethoxy)phenyl)sulfonyl)-8-azabicyclo[3.2.1]octan-3-yl)methyl)morpholine] had a half-maximal inhibitory concentration (IC50) of under 50 nM.

For `Cc1cc(C)c(S(=O)(=O)N2[C@@H]3CC[C@H]2C[C@H](CN2CCOCC2)C3)cn1` [Example 39, 4-(((1R,3s,5S)-8-((4,6-Dimethylpyridin-3-yl)sulfonyl)-8-azabicyclo[3.2.1]octan-3-yl)methyl)morpholine], the IC50 lay in the range of 50 to 150 nM.

For the molecule `CC1(O)CCN(C2CC3CCC(C2)N3S(=O)(=O)c2ccc(OC(F)F)cc2)C1` (stereo not shown) [Example 49, 1-(8-((4-(Difluoromethoxy)phenyl)sulfonyl)-8-azabicyclo[3.2.1]octan-3-yl)-3-methylpyrrolidin-3-ol], the 50% inhibitory concentration (IC50) fell in the range of 50 to 150 nM.

Molecule `O=S(=O)(c1ccc(OC(F)F)cc1)N1C2CCC1CC(N1CCC3(COC3)C1)C2` (stereo not shown) [Example 51, 6-(8-((4-(Difluoromethoxy)phenyl)sulfonyl)-8-azabicyclo[3.2.1]octan-3-yl)-2-oxa-6-azaspiro[3.4]octane] gave an IC50 of 150 to 2000 nM.

The record behind these values is US20250161281A1, “EMOPAMIL-BINDING PROTEIN INHIBITORS AND USES THEREOF” (BIOGEN MA INC., priority 2022, published 2025).
